Measured values reported in patent US9624269B2, “Peptide inhibitors of BACE1” (GENENTECH, INC., priority 2011, dated 2017).
Positions of bridges follow the written chain, without caps; N, C: chain ends. Residues, ends and D or L forms follow the SMILES beside them.

Legend:
human BACE1 (rhBACE1) = human BACE1 (rhBACE1) (Homo sapiens, UniProt P56817); assay: Caliper BACE1 activity assay (microfluidic capillary electrophoresis); assay type: biochemical; design: containing human BACE1 (extracellular domain)
Chain of human BACE1 (rhBACE1) (P56817 46-457 limits assumed): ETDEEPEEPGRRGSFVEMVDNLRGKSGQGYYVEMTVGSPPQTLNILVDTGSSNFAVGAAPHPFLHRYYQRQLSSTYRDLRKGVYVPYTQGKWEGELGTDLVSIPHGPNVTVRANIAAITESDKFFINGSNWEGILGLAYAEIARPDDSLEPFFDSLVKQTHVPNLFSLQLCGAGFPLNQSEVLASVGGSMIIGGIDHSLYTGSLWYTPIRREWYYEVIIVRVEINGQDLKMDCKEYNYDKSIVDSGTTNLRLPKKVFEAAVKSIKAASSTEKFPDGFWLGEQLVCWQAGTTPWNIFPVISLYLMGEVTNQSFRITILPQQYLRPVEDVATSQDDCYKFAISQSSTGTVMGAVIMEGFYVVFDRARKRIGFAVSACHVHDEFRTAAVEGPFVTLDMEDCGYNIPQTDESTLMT
Protocol: An MCE assay reactions can be carried out in a standard enzymatic reaction, initiated by the addition of substrate to enzyme and 4× compound, containing human BACE1 (extracellular domain), amyloid precursor protein beta secretase active site peptide (FAM-[…]-CONH2 (SEQ ID NO: 20)), 50 mM NaOAc pH 4.4 and 0.1% CHAPS. After incubation for 60 minutes at ambient temperature, the product and substrate in each reaction is separated using a 12-sipper microfluidic chip analyzed on an LC3000® (both, Caliper Life Sciences). The separation of product and substrate is optimized by choosing voltages and pressure using the manufacturer's optimization software. Substrate conversion is calculated from the electrophoregram using HTS Well Analyzer software (Caliper Life Sciences).
(§1) BACE1, BACE2 and Cathepsin D Activity Assay Using Microfluidic Capillary Electrophoresis (MCE).
(§2) BACE1, BACE2, and Cathepsin D reactions were carried out in a final volume of 20 μl per well in a 384-well microplate using a Caliper LabChip 3000 (Hopkinton, Mass.). A standard enzymatic reaction, initiated by the addition of 10 μ12× substrate to 5 μl of 4× enzyme and 5 μl of 4× peptide or small molecule inhibitor, contained 12 nM rhBACE1, 1 μM FAM-[…]-amide (SEQ ID NO: 20), 50 mM NaOAc, pH 4.4, 0.1% CHAPS. The same reaction conditions were used for rhBACE2 (5 nM) and Cathepsin D (6 nM) (Cat. No. 219394; EMD Biosciences, San Diego, Calif.). After incubation for 60 min at room temperature, the product and substrate in each reaction were separated using a 12-sipper microfluidic chip. Separation of product and substrate was optimized by choosing voltages and pressure using the Caliper Optimizer software. The separation buffer contained 100 mM HEPES, pH 7.2, 0.015% Brij-35, 0.1% Coating Reagent #3, 10 mM EDTA and 5% DMSO. The separation conditions used a downstream voltage of −500 V, an upstream voltage of −2250 V, and a screening pressure of −1.2 psi. The product and substrate fluorescence was excited at 488 nm and detected at 530 nm. Substrate conversion was calculated from the electrophoregram using the Caliper HTS Well Analyzer software.

[1] = test system: Aβ1-40 production in 293-hAPP cells; assay: Aβ1-40 assay in 293-hAPP cells; assay type: cell-based, human; conditions: 293-HEK cells stably transfected with APP, 24 h
Protocol: Aβ1-40 Assay in 293-hAPP Cells.
Aβ1-40 production was measured in 293-HEK cells stably expressing wild-type human APP(695) complementary DNA (cDNA) (293-hAPP). Cells were seeded overnight at 3×10^4 cells per well in a 96-well plate. Fresh media [Dulbecco's modified Eagle's medium (DMEM)+10% fetal bovine serum (FBS)] containing various inhibitors were incubated with the 293-hAPP cells for 24 h. The cellular medium was harvested and assayed for the presence of Aβ1-40 with an Aβ1-40 HTRF assay (CisBio) according to the manufacturer's instructions. Aβ1-40 values were normalized for cell viability, as determined with the CellTiter-Glo Luminescent Cell Viability Assay (Promega). Experiments were performed at least 3 times, and each point in each experiment was repeated in duplicate. Data was plotted with a 4-parameter nonlinear regression curve-fitting program (KaleidaGraph, Synergy Software).

Cathepsin D = biological target: T1, Cathepsin D (Homo sapiens, UniProt P07339); assay: Cathepsin D activity assay (microfluidic capillary electrophoresis); assay type: biochemical; conditions: 6 nM Cathepsin D
T1 construct: purchased EMD Biosciences, San Diego, Calif; 219394
T1 sequence (P07339 65-412, species assumed): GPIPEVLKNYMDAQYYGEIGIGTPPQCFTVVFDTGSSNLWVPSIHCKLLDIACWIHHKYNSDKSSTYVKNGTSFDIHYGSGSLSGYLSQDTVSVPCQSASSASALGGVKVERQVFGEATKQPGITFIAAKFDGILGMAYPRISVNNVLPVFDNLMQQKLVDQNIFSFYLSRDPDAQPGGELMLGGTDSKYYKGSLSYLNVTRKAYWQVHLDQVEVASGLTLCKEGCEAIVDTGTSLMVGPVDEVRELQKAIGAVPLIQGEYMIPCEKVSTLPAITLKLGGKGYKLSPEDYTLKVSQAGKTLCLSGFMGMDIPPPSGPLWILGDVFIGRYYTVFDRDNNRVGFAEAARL
Protocol: as §1, §2

rhBACE2 = rhBACE2 (Homo sapiens, UniProt Q9Y5Z0); assay: BACE2 activity assay (microfluidic capillary electrophoresis); assay type: biochemical; conditions: 5 nM rhBACE2
Chain of rhBACE2 (Q9Y5Z0 63-518): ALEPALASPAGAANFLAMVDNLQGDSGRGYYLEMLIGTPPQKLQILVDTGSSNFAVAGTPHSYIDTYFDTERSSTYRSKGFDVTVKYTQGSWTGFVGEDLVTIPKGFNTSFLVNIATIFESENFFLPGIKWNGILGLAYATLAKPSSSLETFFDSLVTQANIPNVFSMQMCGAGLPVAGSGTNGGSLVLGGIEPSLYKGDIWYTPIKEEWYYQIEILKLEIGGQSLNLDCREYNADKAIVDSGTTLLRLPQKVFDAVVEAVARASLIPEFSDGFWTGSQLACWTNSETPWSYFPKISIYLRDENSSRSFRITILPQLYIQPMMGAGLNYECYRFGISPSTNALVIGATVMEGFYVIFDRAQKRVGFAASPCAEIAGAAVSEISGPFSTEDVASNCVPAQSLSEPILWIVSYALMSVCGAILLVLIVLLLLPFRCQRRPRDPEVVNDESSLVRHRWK
Protocol: as §1, §2

CC[C@H](C)[C@@H]1NC(=O)CNC(=O)[C@H](CC(C)C)NC(=O)[C@H](CC(C)C)NC(=O)[C@H](CCCNC(=N)N)NC(=O)[C@@H](NC(=O)[C@H](Cc2ccc(O)cc2)NC(=O)[C@H](CCSC)NC(=O)[C@H](CO)NC(=O)[C@H](CCC(=O)O)NC(C)=O)CSSC[C@@H](C(=O)NCC(N)=O)NC(=O)CNC1=O [BACE030] (Ac-ESMYCRLLGIGCG-NH2; disulfide 5-12)
IC50 (human BACE1 (rhBACE1); 12 nM rhBACE1, 1 μM FAM-substrate, pH 4.4): 0.018 ± 0.007 µM | peptide activity (in words) (human BACE1 (rhBACE1); competition binding and enzymatic assays): full activity | Inhibition of Aβ production in cells (in words) [1]: potent inhibition | Inhibition of Cathepsin D (Cathepsin D): no inhibition | Inhibition of BACE2 (rhBACE2): no inhibition
